In brackets after ≈: the same amount, converted by molar mass.
Tested on: NF-kappa B
Assay: Evaluation of inhibition of NF-kappa B: β-gal reporter in immortalized HUVEC induced with IL-1β
Assay type: cell-based
Settings: Homo sapiens; HUVEC with NF-kappa B-driven β-gal reporter; 1 ng/ml IL-1β added 30 minutes after compound; β-gal activity determined 16 hours after; read-out: NFkB inhibiting activity IC50
Description: Evaluation of Inhibition of NF-Kappa B:
Cells used in the tests were obtained by stably introducing E. coli β-galactosidase (β-gal) genes into human normal umbilical vein endothelial cells (HUVEC) immortalized with SV 40 large T antigen. The genes were those driven by SV40 minimum promoter fused with 6 times of the NF-kappa B binding motif derived, from immunoglobulin kappa light-chain enhancer. The cells were subcultured in RPMI medium containing 10% of FBS, and spread on 96-well plates in a concentration of 1×10^4/well the day before the initiation of the experiments. The compound of the present invention was dissolved in DMSO in a suitable concentration and fed into the 96-well plates so that the final concentration of DMSO would be not higher than 1%. 30 minutes after the addition of the compound, NF-kappa B activity was induced with 1 ng/ml of IL-1β in each well. The β-gal activity was determined 16 hours after. The β-gal activity was determined with a chemical photogenic substrate (Galacton-Light-Plus: Boehringer Mannheim) according to the protocol attached to the reagent.

**Q.** For `CC1(C)CC1C(=O)Nc1ccc(C(O)c2ccccc2)cc1NC(=O)C1CC1(C)C` (stereo not shown) [Example 2], which IC50 is on record?
**A.** 1 µg/mL (≈ 2.46 µM)

— patent publication US6563002B2, “Biscyclopropanecarboxamide compounds and pharmaceutical use thereof” (Ajinomoto Co., Inc., priority 1999, dated 2003)
